Assay results as given in patent publication US11744844B2, “Selective estrogen receptor degraders” (Eli Lilly and Company, priority 2021, dated 2023).
Where a name gives a salt, the structure may show the parent alone.

Molecular target: T1, ERα (Homo sapiens, UniProt P03372)
T1 construct: measure the degradation of ERα by a test compound in an ERα positive breast cancer cell line such as MCF7; host or cells: MCF7
T1 sequence (P03372 1-595): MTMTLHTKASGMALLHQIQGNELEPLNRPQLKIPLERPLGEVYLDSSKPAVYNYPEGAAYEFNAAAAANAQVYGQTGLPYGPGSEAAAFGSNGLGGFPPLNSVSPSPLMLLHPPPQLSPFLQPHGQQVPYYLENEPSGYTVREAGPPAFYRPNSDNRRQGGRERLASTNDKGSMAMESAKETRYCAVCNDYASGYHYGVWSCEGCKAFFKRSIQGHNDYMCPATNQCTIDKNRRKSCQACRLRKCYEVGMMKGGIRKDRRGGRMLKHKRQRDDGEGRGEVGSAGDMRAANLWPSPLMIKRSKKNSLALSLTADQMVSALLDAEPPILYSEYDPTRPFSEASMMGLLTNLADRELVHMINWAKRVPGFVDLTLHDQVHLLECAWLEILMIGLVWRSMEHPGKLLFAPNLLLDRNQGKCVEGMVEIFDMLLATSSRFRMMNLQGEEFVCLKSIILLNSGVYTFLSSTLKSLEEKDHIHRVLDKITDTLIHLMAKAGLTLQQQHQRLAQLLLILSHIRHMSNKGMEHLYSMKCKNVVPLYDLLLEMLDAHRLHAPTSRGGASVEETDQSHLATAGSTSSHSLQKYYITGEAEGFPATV
Assay: ERα degradation assay in MCF7 cells
Format: cell-based
Conditions: 24 hours incubation, read-out: Relative IC50, ERα degradation (% ER positive cells)
Description: The purpose of the following ERα degradation assay is to measure the degradation of ERα by a test compound in an ERα positive breast cancer cell line such as MCF7.
Culture MCF7 (purchased from ATCC HTB-22) cells in DMEM media supplemented with 10% FBS, 0.01 mg/mL human insulin 1 and 1% penicillin/streptomycin antibiotics and plate in 384-well flat-bottom plates at a density of 4,000 cells per well in phenol red free DMEM media (20 μL) containing 10% charcoal stripped FBS. Incubate the cells overnight in a cell culture incubator (5% CO2, 95% relative humidity and 37° C.) and allow the cells to attach to the plate. The following day dose the cells with the test compound. Use an Echo 555 acoustic dispenser to prepare test compound serial dilutions (1:3) in a range from 6 μM to 0.0003 μM. Dose the cells with the addition of 5 μL from the serial dilution plate to the cell plate producing a final DMSO concentration of 0.2% with a final test compound concentration dose range between 2 and 0.0001 μM. For the maximum point, use media containing 0.2% of DMSO and for the minimum point, use fulvestrant diluted at 2 μM final concentrations in the growth media containing 0.2% DMSO. […] Scan the plates with ACUMEN EXPLORER™ (Laser-scanning fluorescence microplate cytometer manufactured by TTP LABTECH LTD) to measure ERα. […]

Structure (SMILES) | DC50 [nM]
O=S(=O)(O)Oc1ccc2c3c(cnc2c1)-c1ccc(C(F)(F)F)cc1O[C@@H]3c1ccc(OCCN2CC(CF)C2)cc1 [Example 1, [(5R)-5-[4-[2-[3-(Fluoromethyl)azetidin-1-yl]ethoxy]phenyl]-8-(trifluoromethyl)-5H-chromeno[4,3-c]quinolin-2-yl]hydrogen sulfate] | 115 ± 18.4
O=C(O)[C@H]1O[C@@H](Oc2ccc3c4c(cnc3c2)-c2ccc(C(F)(F)F)cc2O[C@@H]4c2ccc(OCCN3CC(CF)C3)cc2)[C@H](O)[C@@H](O)[C@@H]1O [Example 2, (2S,3S,4S,5R,6S)-6-[[(5R)-5-[4-[2-[3-(Fluoromethyl)azetidin-1-yl]ethoxy]phenyl]-8-(trifluoromethyl)-5H-chromeno[4,3-c]quinolin-2-yl]oxy]-3,4,5-trihydroxy-tetrahydropyran-2-carboxylic acid] | 211 ± 69.2
